From patent US9789149B2, “Vegetation water composition for treatment of inflammatory skin conditions” (CreAgri, Inc., priority 2005, dated 2017)

Assays:
[1] = tested on: peroxynitrite dependent DNA base modification and tyrosine nitration; settings: Deiana et al., 1999; cited from earlier work
5-lipoxygenase = settings: de la Puerta et al., 1999; Kohyama et al., 1997; cited from earlier work
[2] = tested on: low density lipoprotein (LDL) oxidation; settings: Visioli and Galli, 1998; cited from earlier work
platelet aggregation = settings: Petroni et al., 1995; cited from earlier work
12-lipoxygenase = settings: de la Puerta et al., 1999; Kohyama et al., 1997; cited from earlier work
[3] = tested on: various human cellular systems; settings: Manna et al., 2000; cited from earlier work
[4] = humans; Visioli et al., 2000; cited from earlier work
erythema nodosum = test: Example 1: patient with erythema nodosum treated with vegetation water composition tablets; assay type: in vivo, human; settings: 5 mg predonine for nearly 2.3 years
Description: In studies conducted in support of the invention, compositions comprised of the vegetation water composition were prepared and administered to test subjects, as set forth in Examples 1-6. Briefly, the pitted pulp of olives was masticated and pressed to produce a liquid-phase mixture and solid by-products. The solid by-products were separated and removed from the liquid-phase mixture by filtration and centrifugation. The liquid-phase mixture was allowed to rest to allow the oil and aqueous fractions to segregate. The aqueous phase was decanted and acidified with citric acid to adjust the pH between 2 and 4. The acidified aqueous fraction was concentrated by distillation under vacuum and dried by spray drying or oven drying under vacuum to obtain a powder, which was used to prepare the tablets as used in Examples 1-6. Each tablet contained 90 mg of olive pulp solids, 5.4 mg of total polyphenols, and ˜2.5 mg of hydroxytyrosol.
In another embodiment, the compositions of the invention are suitable for treating erythema nodosum. Erythema nodosum is an inflammatory condition characterized by tender, red bumps, and is usually found on the shins, but may also occur on other areas of the body such as the buttocks, calves, ankles, thighs, and upper extremities. Quite often, erythema nodosum is not a separate disease, but, rather, a sign of some other disease, or of sensitivity to a drug. […]

Row | Compound | peroxynitrite dependent DNA base modification and tyrosine nitration [1] | inhibition of 5-lipoxygenase (5-lipoxygenase) | LDL oxidation [2] | platelet aggregation (platelet aggregation) | inhibition of 12-lipoxygenase (12-lipoxygenase) | cytotoxicity induced by reactive oxygen species [3] | absorption following ingestion [4] | erythema nodosum lesions, prior treatment (erythema nodosum)
1 | OCCc1ccc(O)c(O)c1 [hydroxytyrosol, 3,4-dihydroxyphenethyl alcohol] | inhibitory effect | inhibits | prevents | prevents | inhibits | counteracts | dose-dependently absorbed | –
2 | C[C@]12C=CC(=O)C=C1CC[C@@H]1[C@@H]2[C@@H](O)C[C@@]2(C)[C@H]1CC[C@]2(O)C(=O)CO [predonine] | – | – | – | – | – | – | – | little resolution
